Legend:
[1] = system: Jurkat cells; assay: Toxicity and growth inhibition assays (cell counts on days 3, 5 and 15); format: cell-based, human; conditions: Jurkat cells, 0-320 μM
Experimental: For cell culture studies, But4ManNAc (1) (50) was used as a mixture of anomers (α/β=10/90), But4GlcNAc (2) as pure α-anomer and But5Man (3) as pure β-anomer (It is noteworthy that the intracellular hydrolysis of butyrate esters makes the anomeric configuration less relevant in these studies and we found similar cellular effects between the α- and β-anomers in long term toxicity). Stock solutions of the sugar analogs were made in ethanol at concentrations of 10 mM and 50 mM. In the case of cells growing in suspension the solutions of 1-4 (or an ethanol control at an equivalent volume) were coated onto dishes and the ethanol was allowed to evaporate prior to plating. Unless otherwise noted, throughout this study Jurkat cells (Clone E-6, ATCC, Manassas, Va.) were cultured in RPMI 1640 medium supplemented with 300 mg/L glutamine, 5.0% fetal bovine serum (HyClone, Logan, Utah) and 1.0% of a 100× dilution of a pen/strep stock solution containing penicillin (100 units/mL) and streptomycin (100 μg/mL); HL-60 cells (ATCC, Manassas, Va.) were cultured in RPMI 1640 medium supplemented with 10% FBS and pen/strep; and AD293 (HEK) cells (Stratagene, La Jolla, Calif.) were grown in DMEM medium with 10% FBS and pen/strep. In all cases, cells were incubated in a standard 37° C. in a 5.0% CO2, water-saturated environment. Cell counting was performed with a Beckman-Coulter Z2 particle counter and hemacytometer.
Solutions of the analogs in EtOH (10 mM stock) were coated onto 24-well plates at a range of concentrations from 0-320 μM and ethanol was allowed to evaporate. Jurkat cells (1.0×10^5 cells) in 0.5 mL of medium were plated in each well (day 0). On days 3 and 5, fresh medium (1.0 mL) was added to each well. Cell cultures were mixed by gentle pipetting and 100 μL of cell suspension was taken from each well and counted. On days 7, 9, 11, 13 and 15, 1.0 mL of cell suspension was removed from each well after thorough mixing and fresh medium (1.0 mL) was added. Cells were counted on day 15 and the cell density was plotted as a percentage of control (as was done for cell counts from days 3 and 5).

[2] = system: Jurkat cells; assay: Flow cytometry analysis of cell cycle status (PI/RNase A); format: cell-based, human; conditions: human cancer cells
Experimental: The cell cycle arrest induced by butyrate analogs was studied following the standard protocol (49). Briefly, Jurkat cells (2.3×10^5 cells/mL) were incubated with various concentrations of 1 (0, 25, 50, 75, 100, 150 and 200 μM); 2 (200 μM); 3 (200 μM); and 4 (200 μM) for five days. The cells were then harvested, counted, washed twice with PBS, re-suspended in PBS (500 μL), added to a cold solution of 78% aqueous ethanol (4.5 mL) using a glass Pasteur pipette and kept at 2.0° C. for at least 24 h. The fixed cells were centrifuged twice to remove the ethanol completely, re-suspended in propidium iodide (PI)/ribonuclease A (RNase A) staining buffer (BD Pharmingen, Catalog No. 550825, San Diego, Calif.) (500 μL for 1.0×10^6 cells), incubated at 37° C. for 15 min and analyzed by flow cytometry. The cellular aggregates were excluded from single cell populations using an area-width plot (FL2—PT fluorescence) for the cell cycle status determination. At least 10,000 gated events were counted for each determination.
Jurkat cells (2.5×10^5 cells/mL) were incubated with either ethanol (0.2%) or 1 (100 μM or 200 μM). Aliquots of cell suspensions were taken on day 0 and days 2-6, washed with PBS (twice) and fixed in 75% ethanol at 2.0° C. for at least 48 h. The cells were stained with PI/RNase staining buffer and analyzed by flow cytometry as given above.

[3] = system: sialic acid biosynthesis in Jurkat cells; assay: Assay for total sialic acid production (periodate-resorcinol); format: cell-based, human; conditions: 50 and 100 mM, 48 h
Experimental: Jurkat cells (5.0×10^6 cells in 10 mL medium) were incubated with 1-5 at various concentrations. […] The cell lysates were analyzed by using an adapted version of the periodate-resorcinol assay (36, 59) with the periodic acid oxidation step performed on ice to allow quantification of total (i.e., free monosaccharide plus glycoconjugate-bound) sialic acid. For each assay, a standard curve was obtained using N-acetylneuraminic acid (Pfanstiehl, Waukegan, Ill.) for calibration.

[4] = system: Jurkat cells; assay: Toxicity of sodium butyrate (5) towards cells primed with ManNAc; format: cell-based, human
Experimental: Jurkat cells (5.0×10^5 per mL) were incubated with PBS and ManNAc at 50 or 100 mM. After 48 h, the cells were counted, harvested, washed once in fresh medium and plated in a 24-well plate containing various concentrations of sodium butyrate (5) (0-2.0 mM; a stock solution of 200 mM in PBS was used for dilutions and control samples). Cell cultures were maintained and growth was monitored for 15 days as described above under the toxicity and growth inhibition assays.

[5] = system: Jurkat cells; assay: Cell viability assay (trypan blue exclusion); format: cell-based, human; conditions: 200 μM
Experimental: Jurkat cells (2.0×10^5 cells/mL) were seeded with 1-4 at 200 μM in 6-well T. C. plates. Aliquots of cell suspension (20 μL) were removed on a daily basis diluted with either PBS (20 μL) or trypan blue solution (20 μL) and cell viability was determined by using the standard trypan blue exclusion method; three replicate counts were taken for each condition.

[6] = system: HeLa cells; assay: Morphological changes to HeLa cells; format: cell-based, human; conditions: 3 days; 1 at 250 μM, 5 at 5.0 mM
Experimental: (§1) The studies on morphological changes induced by sodium butyrate (5) and But4ManNAc (1) were performed following a reported procedure (45). Briefly, HeLa cells (200,000 cells per well in a 6-well plate) were plated and allowed to form monolayers. After 24 h, the supernatant was aspirated, fresh medium (4.0 mL) was added and treated with either ethanol (20 μL (0.5%), control), 5 (5.0 mM), or 1 (250 μM). For the AD 293 (HEK) cells 2.0×10^6 cells in 10 mL of medium (100 mm tissue culture dishes) were plated and treated, immediately after plating, with either ethanol (50 μL, control), 5 (5.0 mM), or 1 (250 μM). Images were acquired at various time intervals under bright field using a Nikon Eclipse TE200 inverted microscope equipped with a DXM 1200 digital camera.

[7] = system: AD293 (HEK) cells; assay: Morphological changes / toxicity in AD293 (HEK) cells; format: cell-based, human; conditions: 2 days; 1 at 250 μM, 5 at 5.0 mM
Experimental: as §1

[8] = system: p21WAF1/Cip1 promoter; assay: Luc-p21WAF1/Cip1 luciferase reporter gene assay in AD293 (HEK) cells; format: cell-based, human
Experimental: The plasmid Luc-p21^Cip1/WAF1 (a gift from Vogelstein Laboratory, JHMI, Baltimore, Md.) was amplified and purified utilizing a plasmid maxi kit (Cat. No. 12163. Qiagen, Valencia, Calif.) following the manufacturer's protocol. HEK cells (2.5×10^5) were seeded in 3.0 mL medium and grown in 6-well T. C. plates. Transfection was performed using lipofectamine 2000 (Cat. No. 11668-019, Invitrogen, Carlsbad, Calif.) following the protocol supplier's protocol. Cells were trypsinized 24 h after transfection and seeded at 250,000 cells per well with concentrations of 1-4 shown in FIG. 3a or 1, 5, and ManNAc plus 5 at the concentrations shown in FIG. 3c. After 72 h, the cells were trypsinized, counted and lysed in 300 μL of luciferase cell culture lysis buffer and diluted five-fold in the same buffer. Luminometry was performed utilizing the ‘Luciferase Assay System’ (Cat. No. 1500, 4550, Promega, Madison, Wis.) following supplier's protocol. Luciferase Assay Reagent (100 μL) was added to the cell lysate (20 μL) in luminometer tubes (Cat. No. 55.476, Sarstedt, Newton, N.C.) and the luminescence was measured immediately using a Berthold Sirius Luminometer. The final values were normalized relative to ethanol-treated controls and reported on a per cell basis.

[9] = system: p21WAF1; assay: Endogenous p21WAF1 assay (anti-p21WAF1 antibody, flow cytometry) in Jurkat cells; format: cell-based, human; conditions: one week, 1 at 250 μM, 5 at 2.5 mM
Experimental: Endogenous expression of p21^WAF1 was detected following a reported procedure (58) with minor modifications. Jurkat cells (5.0×10^6 cells in 10 mL medium) were incubated with either ethanol or 1 (250 μM or 5 (2.5 mM). On a daily basis, aliquots of cells (˜1.0×10^6 per sample) were taken, washed with PBS (2×1.0 mL), fixed with Reagent A (Fix and Perm Kit, Caltag Laboratories, CA, Cat. No. GAS-003) for 10 min at room temperature, washed with washing buffer (PBS containing 5.0% FBS, 0.1% NaN3), re-suspended in 95% v/v methanol and kept on ice. After 30 min, cells were again washed with washing buffer and incubated with FITC-conjugated anti-p21^WAF1 antibody (Calbiochem, San Diego, Calif., Cat. No. OP64F) at 2.0 μg/mL in Reagent B (100 μL) (Fix and Perm Kit, Caltag Laboratories) for 1.0 h at room temperature in the dark. Finally, cells were re-suspended in washing buffer (500 μL) and analyzed by flow cytometry. Three replicate samples were taken for each condition and 10,000 events were counted for each sample.

Row | Compound | long term growth characteristics (day 15) [1] | apoptosis versus cell cycle arrest (summary) [2] | level required for even partial cell inhibition and toxicity, when used separately ([4]; Jurkat cells, day 15) | reduced cell viability in trypan blue assay [5] | other results
1 | CCCC(=O)OCC(COC(=O)CCC)OC(=O)CCC [compound 4, tributyrin, reference compound] | resumed cell growth over the long term | only provided transient cell cycle arrest | – | – | cell proliferation at early time points (days 3 & 5) ([1]; days 3 and 5): minimal inhibition
2 | CC(=O)N[C@@H]1C(O)O[C@H](CO)[C@@H](O)[C@@H]1O (stereo partly drawn) [ManNAc, N-acetyl-D-mannosamine, reference compound] | – | – | 100 mM | – | increase in total sialic acid [3]: 20-30 fold
3 | CCCC(=O)OC[C@H]1OC(OC(=O)CCC)[C@@H](OC(=O)CCC)[C@@H](OC(=O)CCC)[C@@H]1OC(=O)CCC (stereo partly drawn) [compound 3, 1,2,3,4,6-Penta-O-butanoyl-α,β-D-mannopyranose] | resumed cell growth over the long term | only provided transient cell cycle arrest | – | not | –
4 | CCCC(=O)OC[C@H]1O[C@H](OC(=O)CCC)[C@H](NC(C)=O)[C@@H](OC(=O)CCC)[C@@H]1OC(=O)CCC [compound 2, 2-Acetamido-1,3,4,6-tetra-O-butanoyl-2-deoxy-α-D-glucopyranose] | resumed cell growth over the long term | only provided transient cell cycle arrest | – | not | melting point: 152 to 154 °C
5 | CCCC(=O)[O-].[Na+] [compound 5, Sodium n-butyrate, reference compound] | – | – | 2.0 mm | – | morphological changes / differentiation of HeLa cells [6]: growth of extended processes; apoptosis / toxicity in AD293 cells [7]: toxicity; concentration level required for p21WAF1/Cip1 activation [8]: millimolar concentrations required; endogenous p21WAF1 levels [9]: increased p21^WAF1 levels; growth of ManNAc-treated cells compared to untreated controls ([4]; Jurkat cells pre-incubated with ManNAc 50 or 100 mM, 5 at 0-2.0 mM, five days): inhibited; concentration at which ManNAc-treated cells showed susceptibility ([4]; Jurkat cells pre-incubated with ManNAc, day 15): ≥ 2.0 mM; growth of control cells (without ManNAc) ([4]; Jurkat cells, 5 at 0-2.0 mM, day 15): almost completely recovered from early inhibition

Reference: patent publication US9315532B2, “Fatty acid carbohydrate hybrid molecules as therapeutic agents and methods thereof” (The Johns Hopkins University, priority 2005, dated 2016)
